Measured values: patent publication US8247211B2, “Glycopeptide antibiotics” (American Cyanamid Company, priority 2001, dated 2012)
≈ marks a conversion by molar mass, not a printed value.

Assays:
[1] = Anatomic pathology (heart and kidney histopathology) in mice; assay type: in vivo, CD-1 mice; settings: 20 mg/kg intravenously daily for 9 days, microscopic histopathology on day 10
How it was run: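 Histopathology on H&E-stained, paraffin-embedded sections, subjectively scored (slight, mild, moderate, marked, severe) relative to untreated controls. Dosing: glycopeptide antibiotics 20 mg/kg intravenously once daily ×9 days in 20-day-old CD-1 mice, n=5 per group including vehicle.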

Staphylococcus sp. = assay: In vitro antibacterial evaluation: minimum inhibitory concentration (MIC), broth dilution method; assay type: cell-based
How it was run: (§1)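 Following NCCLS approved standard M7-A2, compounds are serially diluted from 64 to 0.06 μg/mL in Muller-Hinton II […] and inoculated at 5×10^5 CFU/mL; the MIC is the minimum concentration at which growth is inhibited.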

Streptococcus sp. = assay: as above; assay type: cell-based; settings: 18 hours at 35° C.
How it was run: as §1

Enterococcus sp. = assay: as above; assay type: cell-based; settings: 18 hours at 35° C.
How it was run: as §1

Escherichia coli = assay: as above; assay type: cell-based; settings: 18 hours at 35° C.
How it was run: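 Values are minimum inhibitory concentrations, meaning the smallest antibiotic concentration that stops growth of the organism. They come from broth dilution in Muller-Hinton II […] per NCCLS guidance (M7-A2), using 5×10^5 CFU/mL and concentrations from 64 to 0.06 μg/mL.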

[2] = system: Staphylococcus aureus-SMITH (GC 4543); assay: Acute lethal infection in mice (ED50); assay type: in vivo; settings: female CD-1 mice, intraperitoneal challenge, intravenous dose 30 min. after infection, 7 day survival ratios
How it was run: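 IP bacterial challenge, female CD-1 mice; inoculum lethal to untreated controls in 24-48 hr. IV dosing in saline or 5% dextrose 30 min post-infection, 5 mice/dose. ED50 from 7-day survival, 3 tests pooled.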

[3] = broth dilution, inoculum 5×10^5 CFU/mL

With `CC(c1ccccc1)C1NC(=O)CNC(=O)C(CO)NC(=O)C(CC2CNC(=N)N2C2OC(CO)C(O)C(O)C2O)NC(=O)C(CC2CNC(=N)N2)NC(=O)C(Cc2ccc(OC3OC(CO)C(OC4OC5COC6(OC5C(O)C4O)C4CC5CC(C4)CC6C5)C(O)C3O)cc2)NC1=O` (stereo not shown) [Example 219] the “Anatomical Pathology (Day 10), Heart” value [1] was 0, the “Anatomical Pathology (Day 10), Kidney” value [1] was “+++” and the “MIC Staphylococcus aureus (ATCC 29213)” value (Staphylococcus sp.; strain ATCC 29213) was 4 mg/L (≈ 2.87 µM). For the same compound, the “MIC Staphylococcus aureus (GC 1131)” value (Staphylococcus sp.; strain GC 1131) was 4 mg/L (≈ 2.87 µM), the “MIC Staphylococcus aureus (GC 3051)” value (Staphylococcus sp.; strain GC 3051) was 2 mg/L (≈ 1.43 µM) and the “MIC Staphylococcus aureus (GC 3053)” value (Staphylococcus sp.; strain GC 3053) was 2 mg/L (≈ 1.43 µM). For the same compound, the “MIC Staphylococcus aureus (GC 4541)” value (Staphylococcus sp.; strain GC 4541) was 2 mg/L (≈ 1.43 µM), the “MIC Staphylococcus aureus (GC 4542)” value (Staphylococcus sp.; strain GC 4542) was 2 mg/L (≈ 1.43 µM) and the “MIC Staphylococcus aureus-SMITH (GC 4543)” value (Staphylococcus sp.; strain GC 4543) was 2 mg/L (≈ 1.43 µM). For the same compound, the “MIC Staphylococcus aureus (GC 4544)” value (Staphylococcus sp.; strain GC 4544) was 8 mg/L (≈ 5.73 µM), the “MIC Staphylococcus aureus (GC 4545)” value (Staphylococcus sp.; strain GC 4545) was 2 mg/L (≈ 1.43 µM) and the “MIC Staphylococcus haemolyticus (GC 4546)” value (Staphylococcus sp.; strain GC 4546) was 2 mg/L (≈ 1.43 µM). For the same compound, the “MIC Coagulase Negative Staphylococcus (GC 4547)” value (Staphylococcus sp.; strain GC 4547) was 2 mg/L (≈ 1.43 µM), the “MIC Coagulase Negative Staphylococcus (GC 4548)” value (Staphylococcus sp.; strain GC 4548) was 2 mg/L (≈ 1.43 µM) and the “MIC Coagulase Negative Staphylococcus (GC 4549)” value (Staphylococcus sp.; strain GC 4549) was 2 mg/L (≈ 1.43 µM). For the same compound, the “MIC Coagulase Negative Staphylococcus (GC 4551)” value (Staphylococcus sp.; strain GC 4551) was 4 mg/L (≈ 2.87 µM), the “MIC Coagulase Negative Staphylococcus (GC 6257)” value (Staphylococcus sp.; strain GC 6257) was 1 mg/L (≈ 0.717 µM) and the “MIC Streptococcus agalactiae (GC 4564)” value (Streptococcus sp.; Streptococcus agalactiae (GC 4564)) was 2 mg/L (≈ 1.43 µM). The “MIC Streptococcus pneumoniae (ATCC 6301)” value (Streptococcus sp.; Streptococcus pneumoniae (ATCC 6301)) was 0.5 mg/L (≈ 0.358 µM), the “MIC Streptococcus pneumoniae (GC 1894)” value (Streptococcus sp.; Streptococcus pneumoniae (GC 1894)) was 1 mg/L (≈ 0.717 µM) and the “MIC Streptococcus pneumoniae (GC 4565)” value (Streptococcus sp.; Streptococcus pneumoniae (GC 4565)) was 2 mg/L (≈ 1.43 µM). The “MIC Streptococcus pyogenes (GC 4563)” value (Streptococcus sp.; Streptococcus pyogenes (GC 4563)) was 2 mg/L (≈ 1.43 µM), the “MIC Streptococcus agalactiae (GC 4564)” value (Streptococcus sp.; [3]) was 2 mg/L (≈ 1.43 µM) and the “MIC Streptococcus pneumoniae (ATCC 6301)” value (Streptococcus sp.; [3]) was 0.5 mg/L (≈ 0.358 µM). The “MIC Streptococcus pneumoniae (GC 1894)” value (Streptococcus sp.; [3]) was 1 mg/L (≈ 0.717 µM), the “MIC Streptococcus pneumoniae (GC 4565)” value (Streptococcus sp.; [3]) was 2 mg/L (≈ 1.43 µM) and the “MIC Streptococcus pyogenes (GC 4563)” value (Streptococcus sp.; [3]) was 2 mg/L (≈ 1.43 µM). For the same compound, the “MIC Enterococcus avium (GC 4558)” value (Enterococcus sp.; Enterococcus avium (GC 4558)) was 4 mg/L (≈ 2.87 µM), the “MIC Enterococcus faecalis (ATCC 29212)” value (Enterococcus sp.; Enterococcus faecalis (ATCC 29212)) was 16 mg/L (≈ 11.5 µM) and the “MIC Enterococcus faecalis (GC 2242)” value (Enterococcus sp.; Enterococcus faecalis (GC 2242)) was 8 mg/L (≈ 5.73 µM). For the same compound, the “MIC Enterococcus faecalis (GC 2691)” value (Enterococcus sp.; Enterococcus faecalis (GC 2691)) was 8 mg/L (≈ 5.73 µM), the “MIC Enterococcus faecalis (GC 3059)” value (Enterococcus sp.; Enterococcus faecalis (GC 3059)) was 16 mg/L (≈ 11.5 µM) and the “MIC Enterococcus faecalis (GC 4552)” value (Enterococcus sp.; Enterococcus faecalis (GC 4552)) was 8 mg/L (≈ 5.73 µM). For the same compound, the “MIC Enterococcus faecalis (GC 4553)” value (Enterococcus sp.; Enterococcus faecalis (GC 4553)) was 8 mg/L (≈ 5.73 µM), the “MIC Enterococcus faecalis (GC 4554)” value (Enterococcus sp.; Enterococcus faecalis (GC 4554)) was 8 mg/L (≈ 5.73 µM) and the “MIC Enterococcus faecalis (GC 6189)” value (Enterococcus sp.; Enterococcus faecalis (GC 6189)) was 8 mg/L (≈ 5.73 µM). The “MIC Enterococcus faecium (GC 2243)” value (Enterococcus sp.; Enterococcus faecium (GC 2243)) was 8 mg/L (≈ 5.73 µM), the “MIC Enterococcus faecium (GC 4556)” value (Enterococcus sp.; Enterococcus faecium (GC 4556)) was 8 mg/L (≈ 5.73 µM) and the “MIC Enterococcus faecium (GC 4557)” value (Enterococcus sp.; Enterococcus faecium (GC 4557)) was 4 mg/L (≈ 2.87 µM). The “MIC Enterococcus avium (GC 4558)” value (Enterococcus sp.; [3]) was 4 mg/L (≈ 2.87 µM), the “MIC Enterococcus faecalis (ATCC 29212)” value (Enterococcus sp.; [3]) was 16 mg/L (≈ 11.5 µM) and the “MIC Enterococcus faecalis (GC 2242)” value (Enterococcus sp.; [3]) was 8 mg/L (≈ 5.73 µM). For the same compound, the “MIC Enterococcus faecalis (GC 2691)” value (Enterococcus sp.; [3]) was 8 mg/L (≈ 5.73 µM), the “MIC Enterococcus faecalis (GC 3059)” value (Enterococcus sp.; [3]) was 16 mg/L (≈ 11.5 µM) and the “MIC Enterococcus faecalis (GC 4552)” value (Enterococcus sp.; [3]) was 8 mg/L (≈ 5.73 µM). For the same compound, the “MIC Enterococcus faecalis (GC 4553)” value (Enterococcus sp.; [3]) was 8 mg/L (≈ 5.73 µM), the “MIC Enterococcus faecalis (GC 4554)” value (Enterococcus sp.; [3]) was 8 mg/L (≈ 5.73 µM) and the “MIC Enterococcus faecalis (GC 6189)” value (Enterococcus sp.; [3]) was 8 mg/L (≈ 5.73 µM). For the same compound, the “MIC Enterococcus faecium (GC 2243)” value (Enterococcus sp.; [3]) was 8 mg/L (≈ 5.73 µM), the “MIC Enterococcus faecium (GC 4556)” value (Enterococcus sp.; [3]) was 8 mg/L (≈ 5.73 µM) and the “MIC Enterococcus faecium (GC 4557)” value (Enterococcus sp.; [3]) was 4 mg/L (≈ 2.87 µM). The “MIC Escherichia coli (ATCC 25922)” value (Escherichia coli; Escherichia coli (ATCC 25922)) was 64 mg/L (≈ 45.9 µM), the “MIC Escherichia coli (GC 4559)” value (Escherichia coli; Escherichia coli (GC 4559)) was 64 mg/L (≈ 45.9 µM) and the “MIC Escherichia coli (GC 4560)” value (Escherichia coli; Escherichia coli (GC 4560)) was 4 mg/L (≈ 2.87 µM). For the same compound, the median effective dose (ED50), Staphylococcus aureus-SMITH (GC 4543) [2] was 0.5 mg/kg.
